Measured values from US20230106519A1, “GOLD(III)-BIGUANIDE PRODRUGS, METHODS OF PREPARATION AND USES THEREOF” (National University of Singapore, priority 2020, published 2023).
Several values for one entry are separate records, joined by “and”; a condition that tells them apart may be missing. Equal values may be shown once.

Experiments:
[1] = target: extracellular signal-regulated kinase 1 (ERK1) (Homo sapiens, UniProt P27361); assay: Kinase screening, radioactive 33P-ATP filter-binding assay, ERK1; details: 10 μM of 3met
Procedure: (§2) Kinase screening was performed at the International Centre for Kinase profiling (University of Dundee, UK) according to literature procedure (Bain J, Plater L, Elliott M, Shpiro N, Hastie C J, McLauchlan H, et al. The selectivity of protein kinase inhibitors: a further update. Biochem J 2007; 408:297-315).

BiP, CHOP, p-elF2α = details: 0.5 and 2EC50, 2, 6 and 24 hours
Procedure: (§3) Western blotting. MDA-MB-231 cells were seeded into Cellstar 6-well plates (Greiner Bio-One) at a density of 60×10^4 cells/well (2 mL per well). After the cells were allowed to resume exponential growth for 24 hours, they were exposed to compounds of interest at various concentrations for 2, 6 and 24 hours. The cells were washed twice with PBS and lysed with RIPA buffer (50-100 μL) and kept for 5-10 minutes at 4° C. The samples were sonicated in ice bath (3 times for 30 seconds). The supernatant was then collected after centrifugation (1.3×10^4 rpm, 4° C. for 15 minutes) and total protein content of each sample was quantified via Bradford's assay. Equal quantities of protein (50 μg) were reconstituted in loading buffer (5× Laemmli Buffer with 5% DTT) and heated at 100° C. for 10 minutes. Subsequently, the protein mixtures were resolved on a 8%, 10% or 12% SDS-PAGE gel by electrophoresis (90 V for 30 minutes followed by 120 V for 60 minutes) and transferred onto a nitrocellulose membrane (200 mA for 2 hours). The protein bands were visualised with Ponceau S stain solution and the nitrocellulose membranes were cut into strips based on the protein ladder. The membranes were washed with a TBS-T wash buffer (0.1% Tween-20 in 1×PBS) 3 times for 5 minutes. […] Immune complexes were detected with Luminata HRP substrates and analysed using enhanced chemiluminescence imaging. […]

[2] = Stability in ammonium carbonate buffer by high resolution ESI-MS; details: ammonium carbonate buffer pH 7.4, 37° C., 1, 3 and 24 hours
Procedure: NMR and mass spectrometric (MS) methods were employed to characterize the stability of Au complexes in DMSO and aqueous media. ^1H NMR stability studies were performed over the period of 6-10 days in d^6-DMSO and D2O (1met*).

MDA-MB-231 tumors [3] = assay: Histopathological examination of H&E-stained tumors (QuPath)
[4] = system: LC3-II, p62, Ulk1 (Ser757); assay: Western blot, autophagy markers
Procedure: Western blotting. MDA-MB-231 cells were seeded into Cellstar 6-well plates (Greiner Bio-One) at a density of 60×10^4 cells/well (2 mL per well). After the cells were allowed to resume exponential growth for 24 hours, they were exposed to compounds of interest at various concentrations for 2, 6 and 24 hours. The cells were washed twice with PBS and lysed with RIPA buffer (50-100 μL) and kept for 5-10 minutes at 4° C. The samples were sonicated in ice bath (3 times for 30 seconds). The supernatant was then collected after centrifugation (1.3×10^4 rpm, 4° C. for 15 minutes) and total protein content of each sample was quantified via Bradford's assay. Equal quantities of protein (50 μg) were reconstituted in loading buffer (5× Laemmli Buffer with 5% DTT) and heated at 100° C. for 10 minutes. Subsequently, the protein mixtures were resolved on a 8%, 10% or 12% SDS-PAGE gel by electrophoresis (90 V for 30 minutes followed by 120 V for 60 minutes) and transferred onto a nitrocellulose membrane (200 mA for 2 hours). The protein bands were visualised with Ponceau S stain solution and the nitrocellulose membranes were cut into strips based on the protein ladder. The membranes were washed with a TBS-T wash buffer (0.1% Tween-20 in 1×PBS) 3 times for 5 minutes. Subsequently, they were blocked in 5% BSA (w/v) in wash buffer for 1 hour and incubated with the appropriate primary antibodies in 5% BSA (w/v) in wash buffer at 4° C. overnight. The membranes were washed with a wash buffer 3 times for 7 minutes. After incubation with HRP-conjugated secondary antibodies in 2% BSA (w/v) in wash buffer (room temperature, 2 hours), the membranes were washed with a wash buffer 4× for 5 minutes. Immune complexes were detected with Luminata HRP substrates and analysed using enhanced chemiluminescence imaging. Actin was used as a loading control. […]
One of the hallmarks of autophagy was the conversion of cytosolic LC3-I to autophagosome-bound LC3-II which was monitored by Western Blotting.

[5] = Reactivity towards glutathione, ligand release (HR-MS, UV-vis); format: physicochemical
Description: NMR- and MS-based stability studies.
Intriguingly, the reactivity of Au^III-metformin complexes towards GSH was drastically different despite their similar structures.

insulin receptor (IR) = insulin receptor (IR) (Homo sapiens, UniProt P06213); assay: Kinase screening, radioactive 33P-ATP filter-binding assay, IR; details: 10 μM of 3met
Procedure: as §2

[6] = system: c-Jun N-terminal kinase (JNK); details: MDA-MB-231, apparent after 24 hours
Procedure: as §3

[7] = system: TAMH (transforming growth factor-a transgenic mouse hepatocytes); assay: MTT toxicity assay in hepatocytes TAMH; details: read-out: EC50 TAMH, exposure time 72 hours
Procedure: (§4) Cell lines and culture conditions. Human ovarian carcinoma cells A2780 and A2780cisR, and human breast adenocarcinoma MDA-MB-231 cells, murine hepatocytes TAMH and human cardiomyocytes AC10 were obtained from ATCC.
Inhibition of cell viability assay. The cytotoxicity of the compounds was determined by colorimetric MTT assay. The cells were harvested from culture flasks by trypsinization and seeded into Cellstar 96-well microculture plates at the seeding density of 6000 cells per well (6×10^4 cells/mL). TAMH and AC10 cells were seeded at 12000 and 5000 cells per well, respectively. After cells were allowed to resume exponential growth for 24 hours, they were exposed to drugs at different concentrations in media for 72 hours. The drugs were diluted in complete medium at the desired concentration and added to each well (100 μL) and serially diluted to other wells. After exposure for 72 hours, the media was replaced with MTT in media (5 mg/mL, 100 μL) and incubated for additional 45 minutes. Subsequently, the medium was aspirated and the purple formazan crystals formed in viable cells were dissolved in DMSO (100 μL). Optical densities were measured at 570 nm using the BioTek H1 Synergy microplate reader. […] Evaluation was based on means from at least three independent experiments, each comprising six replicates per concentration level. […]

rat liver TrxR = target: T1, rat liver TrxR (Rattus norvegicus, UniProt O89049); assay: Thioredoxin reductase inhibition, DTNB reduction assay; details: read-out: IC50 TrxR; DTNB reduction assay, exposure time 30 min
T1 sequence (O89049 1-499): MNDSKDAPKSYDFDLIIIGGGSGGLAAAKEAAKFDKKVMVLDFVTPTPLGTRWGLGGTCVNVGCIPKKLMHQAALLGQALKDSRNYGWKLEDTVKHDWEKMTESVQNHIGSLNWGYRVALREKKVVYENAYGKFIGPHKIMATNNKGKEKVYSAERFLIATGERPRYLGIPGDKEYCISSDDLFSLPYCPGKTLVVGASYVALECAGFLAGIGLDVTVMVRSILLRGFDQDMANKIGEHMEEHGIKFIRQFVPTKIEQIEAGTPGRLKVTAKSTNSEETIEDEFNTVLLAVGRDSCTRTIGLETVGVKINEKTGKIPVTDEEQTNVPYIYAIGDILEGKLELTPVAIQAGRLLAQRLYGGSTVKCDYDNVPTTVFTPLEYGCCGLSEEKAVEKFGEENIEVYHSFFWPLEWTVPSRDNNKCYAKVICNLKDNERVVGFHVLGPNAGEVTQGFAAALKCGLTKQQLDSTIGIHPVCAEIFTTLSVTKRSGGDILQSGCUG
Procedure: Thioredoxin reductase inhibition assay. Assay was performed according to the protocol provided by the manufacturer. […] Compounds of interest were serially diluted at the separate 96-well plate and 4 μl of each concentration was added to the appropriate wells. The reaction mixture was incubated with gentle shaking (room temperature, 30 minutes). Subsequently, 6 μl of DNTB (100 mM) was added and incubated for an additional 3 minutes.
Compounds of interest at six different concentrations were incubated with the isolated rat liver TrxR enzyme in the presence of NADPH for 30 minutes, followed by 2 minutes incubation with the DNTB reagent.

[8] = target: protein kinase B beta (PKBβ) (Homo sapiens, UniProt P31751, S474D); assay: Kinase screening, radioactive 33P-ATP filter-binding assay, PKBβ; details: 10 μM of 3met
Procedure: as §2

[9] = system: MDA-MB-231 (breast adenocarcinoma); assay: MTT cytotoxicity assay, MDA-MB-231; details: read-out: EC50 MDA-MB-231; MTT assay, exposure time 72 hours
Procedure: (§5) Human ovarian carcinoma cells A2780 and A2780cisR, and human breast adenocarcinoma MDA-MB-231 cells, murine hepatocytes TAMH and human cardiomyocytes AC10 were obtained from ATCC. […] The stock of cisplatin was commercially available clinical grade solution in saline buffer.
(§6) Inhibition of cell viability assay. The cytotoxicity of the compounds was determined by colorimetric MTT assay. The cells were harvested from culture flasks by trypsinization and seeded into Cellstar 96-well microculture plates at the seeding density of 6000 cells per well (6×10^4 cells/mL). TAMH and AC10 cells were seeded at 12000 and 5000 cells per well, respectively. After cells were allowed to resume exponential growth for 24 hours, they were exposed to drugs at different concentrations in media for 72 hours. The drugs were diluted in complete medium at the desired concentration and added to each well (100 μL) and serially diluted to other wells. After exposure for 72 hours, the media was replaced with MTT in media (5 mg/mL, 100 μL) and incubated for additional 45 minutes. Subsequently, the medium was aspirated and the purple formazan crystals formed in viable cells were dissolved in DMSO (100 μL). Optical densities were measured at 570 nm using the BioTek H1 Synergy microplate reader. […] Evaluation was based on means from at least three independent experiments, each comprising six replicates per concentration level.

MDA-MB-231 tumors [10] = system: MDA-MB-231 tumors
Procedure: (§1) Animal experiments: 6-week-old female athymic nude mice were purchased from Invigo. Animals were housed in animal-holding units at Center for Comparative Medicine, Northwestern University in a pathogen-free environment at constant temperature in a 12/12-hour light/dark cycle. All animal procedures were carried out in accordance with a protocol approved by the Institutional Animal Care and Use Committee, Protocol number: IS00002999. Animals were acclimatized for 2 weeks following arrival before the beginning of experiments. Mice were allowed free access to food and water. […] MDA-MB-231 cells expressing firefly luciferase were collected by trypsinization and mixed with Matrigel (1:1) for fat pad injections. The MDA-MB-231 cell/matrigel mixture (100 μI) was injected into the fat pad of the fourth mammary glands on both sides of 6-week-old female athymic nude-Foxn1^nu mice (Envigo) at 2.5×10^5 cells/gland under ketamine/xylazine anesthesia (50-100/5-10 mg/kg). Ketaprofen and Buprenophrine SR were injected subcutaneously for pain management at 2-5 mg/kg and 0.5-1 mg/kg, respectively. The growth of tumors was monitored by live animal imaging. Once tumors became palpable (week 2 after tumor implantation), treatment was initiated. Animals were separated into two groups (7 mice in each group) and tumor dimensions were measured using a caliper by width×length (mm^2). […] Animals were sacrificed on week 6. Animals were controlled for distress development. Their weight changes were monitored every 2-3 days for 6 weeks. […] Statistical analysis was done by Student's unpaired T-test and One-way Anova test with post-hoc Dunnett test using GraphPad Prism 9 software.
Luciferase-transfected MDA-MB-231 cells were injected into […] 2 fat pads near inguinal nipples and tumor growth was controlled by bioluminescent imaging.

[11] = system: A2780cisR (ovarian carcinoma); assay: MTT cytotoxicity assay, A2780cisR
Procedure: as §5, §6

MDA-MB-231 cells [12] = system: MDA-MB-231 cells
Procedure: (§7) Inhibition of cell viability assay. The cytotoxicity of the compounds was determined by colorimetric MTT assay. The cells were harvested from culture flasks by trypsinization and seeded into Cellstar 96-well microculture plates at the seeding density of 6000 cells per well (6×10^4 cells/mL). TAMH and AC10 cells were seeded at 12000 and 5000 cells per well, respectively. After cells were allowed to resume exponential growth for 24 hours, they were exposed to drugs at different concentrations in media for 72 hours. The drugs were diluted in complete medium at the desired concentration and added to each well (100 μL) and serially diluted to other wells. After exposure for 72 hours, the media was replaced with MTT in media (5 mg/mL, 100 μL) and incubated for additional 45 minutes. Subsequently, the medium was aspirated and the purple formazan crystals formed in viable cells were dissolved in DMSO (100 μL). Optical densities were measured at 570 nm using the BioTek H1 Synergy microplate reader. […] Evaluation was based on means from at least three independent experiments, each comprising six replicates per concentration level. For experiments with inhibitors, MDA-MB-231 cells were seeded at the seeding density of 8000 cells per well (8×10^4 cells/mL).

MDA-MB-231 cells [13] = assay: Cellular accumulation of Au by ICP-MS; details: ICP-MS after 24 hour exposure at 1.4 μM
Procedure: Cellular accumulation of Au complexes was determined in MDA-MB-231 cells. Cells were seeded into Cellstar 6-well plates (Greiner Bio-one) at a density of 60×10^4 cells/well (2 mL per well). After the cells were allowed to resume exponential growth for 24 hours, they were exposed to compounds of interest at various concentrations for 24 hours at 37° C. The cells were washed twice with 1 mL of PBS and lysed with RIPA lysis buffer for 5-10 min at 4° C. The cell lysates were scraped from the wells and transferred to separate 1.5 mL microtubes. The supernatant was then collected after centrifugation (13000 rpm, 4° C. for 15 minutes) and total protein content of each sample was quantified via Bradford's assay. […] The resulting solution was diluted to 1 mL (2-4% v/v HNO3) with ultrapure Milli-Q water. Au content of each sample was quantified by ICP-MS. Re was used as an internal standard. […] Metal standards for calibration curve (0, 0.5, 1, 2, 5, 10, 20, 40 ppb) were freshly prepared before each measurement. All readings were made in triplicates in He mode.

MDA-MB-231 cells [14] = system: MDA-MB-231 cells; remark: listed apart in the source
Procedure: Glycolysis Stress Test assay: Extracellular acidification rate (ECAR) was monitored by using Seahorse XF^e24 Glycolysis Stress Test Kit (Seahorse Bioscience). Prior to the assay, XF sensor cartridges were hydrated. MDA-MB-231 cells were seeded onto XF^e24-well cell culture plates at a density of 4×10^4 cells/well in 250 μL DMEM complete growth medium and then incubated for 48 hours at 37° C. in 5% CO2 incubator. The cells were subsequently exposed to compounds of interest at different concentrations for 24 hours. The wells were washed with 250 μL of pre-warmed Seahorse XF DMEM media, supplemented with 100 mM glutamine, pH 7.4 and replaced with 525 μL of this media. The plate was incubated at 37° C. in a non-CO2 incubator for 1 hour before the measurement. Three baseline measurements of ECAR were recorded and 10 mM of glucose, 1 μM of olygomycin and 100 mM of 2-deoxyglucose (2-DG) were added in sequence. ECAR was measured using Seahorse XF^e24 Cell Bioanalyzer (Seahorse Biosciences). The media was removed from the wells and 60 μL of 0.1 M NaOH was added. After vigorous pipetting, the protein content was quantified by BCA assay and OCR was normalized per protein content.

[15] = system: A2780 (ovarian carcinoma); assay: MTT cytotoxicity assay, A2780; details: read-out: EC50 A2780; MTT assay, exposure time 72 hours
Procedure: as §5, §6

[16] = tumor-bearing mice
Procedure: Organ distribution studies: At the experimental endpoint, the hearts were perfused with PBS immediately before the excision of the organs. Brain, liver, kidney, spleen, heart, lung, bone and tumor tissues were collected from each mouse and flash-frozen in liquid nitrogen. The organs of the vehicle-treated mouse were used for the measurements of the background. The organs were lyophilized for 4 days, weighed, mechanically minced and digested in 100 μl of ultrapure 65% HNO3 at 105° C. for 3 days. The resulting solution was diluted to 2% v/v HNO3 with ultrapure Milli-Q water. Gold content was measured by ICP-MS as described above.
Additionally, the Au biodistribution across various organs in tumor-bearing mice was assessed.

[17] = Procedure: as §1
The tolerability of the chosen dose level was judged based on the weight loss and clinical score.

[18] = system: AC10 (human ventricular cardiomyocytes); assay: MTT toxicity assay in cardiomyocytes AC10; details: read-out: EC50 AC10; MTT assay, exposure time 72 hours
Procedure: as §4, §7

MDA-MB-231 cells [19] = system: MDA-MB-231 cells; remark: listed apart in the source
Procedure: Mitochondrial bioenergetics (MitoStress assay): Oxygen Consumption Rate (OCR) was monitored by using Seahorse XF^e24 Cell MitoStress Test Kit (Seahorse Bioscience). Prior to the assay, XF sensor cartridges were hydrated. MDA-MB-231 cells were seeded onto XF^e24-well cell culture plates at a density of 4×10^4 cells/well in 250 μL DMEM complete growth medium and then incubated for 48 h at 37° C. in 5% CO2 incubator. The cells were subsequently exposed to compounds of interest at different concentrations for 24 hours. The wells were washed with 250 μL of pre-warmed Seahorse XF DMEM media, supplemented with 10 mM glucose, 1 mM sodium pyruvate and 2 mM glutamine, pH 7.4 and replaced with 525 μL of this media. The plate was incubated at 37° C. in a non-CO2 incubator for 1 hour before the measurement. Three baseline measurements of OCR were recorded and 1 μM of olygomycin (ATP synthase complex inhibitor), 1 μM of FCCP (ATP synthesis uncoupler trifluorocarbonylcyanide phenylhydrazone) and a mixture of 0.5 μM of antimycin-A (inhibitor of complex III) and 0.5 μM of rotenone (inhibitor of electron transfer from Fe-S center of complex I to ubiquinone) were added in sequence. OCR was measured using Seahorse XF^e24 Cell Bioanalyzer (Seahorse Biosciences). The media was removed from the wells and 60 μL of 0.1 M NaOH was added. After vigorous pipetting, the protein content was quantified by BCA assay and OCR was normalized per protein content.

Sequence of extracellular signal-regulated kinase 1 (ERK1) (P27361 whole entry): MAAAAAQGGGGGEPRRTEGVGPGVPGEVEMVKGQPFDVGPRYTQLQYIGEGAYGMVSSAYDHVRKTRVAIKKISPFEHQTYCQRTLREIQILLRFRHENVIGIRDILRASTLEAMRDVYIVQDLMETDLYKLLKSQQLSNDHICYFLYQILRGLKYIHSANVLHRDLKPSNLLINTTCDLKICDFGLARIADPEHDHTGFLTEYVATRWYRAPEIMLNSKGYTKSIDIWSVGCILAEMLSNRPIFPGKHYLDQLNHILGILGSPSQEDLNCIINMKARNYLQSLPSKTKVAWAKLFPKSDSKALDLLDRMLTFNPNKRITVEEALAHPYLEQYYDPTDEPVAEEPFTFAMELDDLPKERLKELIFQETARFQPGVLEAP
Sequence of protein kinase B beta (PKBβ) (P31751 120-481 S474D limits assumed): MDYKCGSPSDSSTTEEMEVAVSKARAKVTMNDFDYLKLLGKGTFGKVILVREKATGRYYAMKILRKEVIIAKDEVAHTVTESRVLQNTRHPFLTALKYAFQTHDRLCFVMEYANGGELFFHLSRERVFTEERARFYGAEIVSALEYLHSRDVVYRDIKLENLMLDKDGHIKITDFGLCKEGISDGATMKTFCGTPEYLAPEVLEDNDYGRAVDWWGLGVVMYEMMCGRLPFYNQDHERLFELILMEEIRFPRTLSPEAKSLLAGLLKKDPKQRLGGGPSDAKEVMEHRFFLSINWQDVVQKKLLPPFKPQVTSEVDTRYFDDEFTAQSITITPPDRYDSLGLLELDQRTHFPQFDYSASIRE
Sequence of insulin receptor (IR) (P06213 1001-1382 limits assumed): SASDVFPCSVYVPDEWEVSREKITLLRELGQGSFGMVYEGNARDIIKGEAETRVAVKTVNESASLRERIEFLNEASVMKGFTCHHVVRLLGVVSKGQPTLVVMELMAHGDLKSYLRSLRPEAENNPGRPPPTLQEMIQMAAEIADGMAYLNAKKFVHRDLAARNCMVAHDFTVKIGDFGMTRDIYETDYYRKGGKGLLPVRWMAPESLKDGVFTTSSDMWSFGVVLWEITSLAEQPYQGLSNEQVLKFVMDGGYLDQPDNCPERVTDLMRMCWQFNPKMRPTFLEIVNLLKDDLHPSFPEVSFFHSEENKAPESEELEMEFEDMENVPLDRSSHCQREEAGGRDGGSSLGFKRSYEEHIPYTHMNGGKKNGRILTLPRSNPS

CN(C)C1=[NH+][Au-]2([NH]C(N)=N1)[c]1ccccc1C(=O)c1cccc[n+]12.F[P-](F)(F)(F)(F)F (stereo not shown) [Compound 3met]
inhibition of ERK1 [1]: 90% | CHOP expression over time (BiP, CHOP, p-elF2α): time-dependent increase of CHOP | stability, detection of molecular ion [M]+ [2]: stable for 24 hours | inflammatory cells infiltration of tumors (MDA-MB-231 tumors [3]; H&E): marked inflammatory cells infiltration | Area (MDA-MB-231 tumors [3]; single tumor image): 23769502 μm^2 and 27637537.7 μm^2 and 28709913 μm^2 | Necrosis % (MDA-MB-231 tumors [3]; single tumor image): 32.52% and 41% and 26.24% | Necrosis area (MDA-MB-231 tumors [3]; single tumor image): 7.73 mm^2 and 11.33 mm^2 and 7.533 mm^2 | Perimeter (MDA-MB-231 tumors [3]; single tumor image): 20891.3 μm and 25672.2 μm and 21813.3 μm | Tumor % (MDA-MB-231 tumors [3]; single tumor image): 60.11% and 34.58% and 66.37% | Tumor area (MDA-MB-231 tumors [3]; single tumor image): 14.29 mm^2 and 9.556 mm^2 and 19.05 mm^2 | Ulk1 phosphorylation at Ser757 ([4]; 2EC50, 24 hours): marked dephosphorylation of Ulk1 at Ser757 site | p62 levels ([4]; MDA-MB-231): increase of p62 levels | LC3-II expression ([4]; MDA-MB-231, concentration- and time-dependent): significantly enhanced the expression of LC3-II | decrease of peak area of 3met+ (M+) signal ([5]; 1 eq. GSH, ammonium carbonate): more than 27 fold | increase of peak area of metformin signal (m/z 130.1078) ([5]; 1 eq. GSH, ammonium carbonate, after 3 hours): more than 5 fold | reactivity towards GSH / ligand release in words ([5]; with GSH, HR-MS and UV-vis): time-dependent release of metformin | inhibition of IR kinase (insulin receptor (IR)): 70% | JNK phosphorylation [6]: JNK phosphorylation already at 0.5 EC50 drug concentrations | EC50 [7]: 2700 ± 700 nM | IC50 (rat liver TrxR): 1.3 ± 0.3 nM | inhibition of PKBβ [8]: 100% | EC50 [9]: 720 ± 80 nM | tumor growth (MDA-MB-231 tumors [10]; 15 mg/kg i.p., weeks 3, 4 and 5, vs vehicle): no tumor growth was observed after week 3 | deaths in drug-treated group (MDA-MB-231 tumors [10]; 15 mg/kg, 7 mice per group): Two mice died | kidney histopathology (MDA-MB-231 tumors [10]; H&E, endpoint, 5 weeks): distorted glomeruli, dilated tubules, edema exudate, light necrosis | liver histopathology (MDA-MB-231 tumors [10]; H&E, endpoint, 5 weeks): vacualization, fatty changes, periportal lymphoid infiltration and expansion of Disse space in A and B, and focal necrosis in C | RF (Resistance Factor) ([11]; IC50 (A2780cisR)/IC50 (A2780)): 4 | EC50 ([11]; read-out: EC50 A2780cisR, MTT assay, exposure time 72 hours): 530 ± 70 nM | increase of 3met activity in presence of 3-MA (MDA-MB-231 cells [12]; 3-methyladenine 2 mM, 24 hours): more than 2 times | abrogation of 3met-induced cell death by cycloheximide (MDA-MB-231 cells [12]; CHX 12.5 μM, 24 hours): ≈ 3.5 times | abrogation of 3met activity by SP600125 (MDA-MB-231 cells [12]; JNK inhibitor SP600125 20 μM): ≈ 1.7 fold | Cellular accumulation MDA-MB-231 (MDA-MB-231 cells [13]): 1.37 ± 0.48 nmol Au/mg protein | glycolytic parameters (ECAR), low concentration (MDA-MB-231 cells [14]; 0.05 μM, 24 hours): significant increase of all glycolytic parameters | glycolytic reserve (ECAR), higher concentration (MDA-MB-231 cells [14]; 1.5 μM, 24 hour exposure): significantly declined glycolytic reserve | EC50 [15]: 150 ± 30 nM | Au biodistribution in words [16]: selectively accumulated in tumors | weight loss ([17]; 20 mg/kg, day 6): 11% and 10% | dose-limiting toxicity ([17]; histopathological changes): kidney and liver toxicity | maximum tolerated dose (MTD) ([17]; intraperitoneal route, daily for 4-5 days): 15 mg/kg | EC50 [18]: 7400 ± 3000 nM | non-mitochondrial respiration (MDA-MB-231 cells [19]; 24 hours): not significantly inhibited | mitochondrial bioenergetic parameters (OCR) (MDA-MB-231 cells [19]; 24 hours, increasing concentrations): dose-dependent progressive decrease of all mitochondrial bioenergetic parameters | concentration significantly inhibiting mitochondrial respiration (MDA-MB-231 cells [19]; as low as): 1.5 µM
